Consider four molecules from patent US12559776B2, “Chemical and biological integrated degradation process for polyethylene terephthalate (PET), for recycling pet” (Korea University Research and Business Foundation, priority 2021, dated 2026).

A short description of series [1]: pH of 50 mM sodium phosphate buffer after adding TPA. The note with it: TPA 4 g/L in 50 mM sodium phosphate buffer (pH 8). The format is physicochemical. On the procedure: Based on the defined enzyme input amounts, a hydrolase reaction was performed using the product of PET glycolysis, in which betaine was used, as a substrate. Accordingly, the efficient input amounts of the IsPETase^Mut and IsMHETase^Mut enzymes relative to substrates were to be confirmed without wasting the enzymes. The reaction conditions included a PET glycolysis product including 10 g/L of BHET as a substrate, 50 mM sodium phosphate buffer (pH 8), and a volume of 500 μL. After the reaction was performed at 40° C. for 6 hours, 30 min, 1 hr, 3 hr, and 6 hr, samples were diluted in methanol and centrifuged at 25,188 g for 10 minutes, and followed by analyzing the supernatant through high performance liquid chromatography (HPLC). As a result, in FIG. 6c, when the enzyme input amounts are 2.3 U/L and 4.5 U/L, compared to 9.0 U/L, it was confirmed that the amount of the product TPA is low. As the reaction progressed, it was expected that the pH was lowered and the enzyme activity was lost due to the influence of the product TPA. First, to confirm how low the pH is under the enzymatic hydrolysis reaction conditions due to the influence of TPA, TPA was added at a concentration of 0 to 10 g/L under the condition of 50 mM sodium phosphate buffer (pH 8). As a result, in FIG. 6d, the pHs of all samples were measured with a pH meter and visually confirmed with pH paper. […]

A short description of series [2]: PET glycolysis in EG with catalyst (microwave). Particulars: 190 °C. On the procedure: To establish an economical and efficient PET upcycling process, a chemical PET depolymerization process is required. […] A conventional PET glycolysis method mainly used a heavy metal catalyst. The use of a metal catalyst may have an adverse effect on the biological process of the integrated process and have adverse environmental effects, so glycolysis was performed in a microwave digestion system using betaine instead of a metal catalyst. Specifically, 3.5 to 11.5 g of granular PET and a specific amount of EG were reacted using betaine as a catalyst at 190° C. for 30 to 120 minutes. To maintain the reaction conditions, a microwave digester (Milestone, Shelton, CT) with a thermocouple and magnetic stirrer function was used, and the reaction was performed in a 100 mL reaction vessel for exclusive use of a microwave digester.
To determine the glycolysis effect of betaine, first, the input amount of a substrate was optimized. Glycolysis was performed at 190° C. for 30 minutes by adding 0.5% (catalyst/PET, w/w ratio) betaine to a PET substrate and an EG solvent at a molar ratio (PET:EG) of 1:3, 1:4, 1:5, 1:6, 1:10, or 1:20. Here, the major product BHET and a by-product MHET were produced. The BHET and MHET concentrations were measured by liquid chromatography. As a result, it was confirmed that the highest yield was obtained under a substrate input condition corresponding to a PET:EG molar ratio of 1:5. However, considering the concentration of the final product, it was confirmed that the yield was even higher under the substrate input condition corresponding to the PET:EG molar ratio of 1:4. […] Accordingly, the substrate input condition corresponding to a PET:EG molar ratio of 1:4 was selected, and further conditions were established (Table 2).
To confirm the catalytic effect on the input amount of betaine, betaine corresponding to 0, 0.1, 0.5, 1% (catalyst/PET, w/w ratio) was added, and glycolysis was performed at 190° C. for 30 minutes. As a result, it was confirmed that the condition of adding betaine corresponding to 0.5% (catalyst/PET, w/w ratio) is optimal. Accordingly, this condition was selected, and further conditions were established (Table 2)
Next, to confirm the effect by glycolysis reaction time, the reaction was performed at 190° C. under various reaction time conditions of 30, 60, 90, and 120 minutes. As a result, it was confirmed that 60 minutes is the optimal condition. […] Afterward, in a biological process, the PET glycolysis product that had been produced under the above conditions was used as a substrate (Table 2). […]
To analyze a PET glycolysis product using betaine as a catalyst, high performance liquid chromatography (HPLC) analysis was performed. HPLC analysis conditions are as follows. As a column, a C18 column (OpitmaPak C18-51001546, 5 μm, 150 mm×4.6 mm) was used, and a column temperature was maintained at 25° C. during the analysis. Two mobile phases, A and B, were used, wherein A is 0.1% trifluoroacetic acid in distilled water, and B is methanol. During the analysis at a flow rate of 1 mL/min for 27 minutes, the proportion of the mobile phase B was maintained at 5% at 0 to 2 minutes, and the proportion of the mobile phase B was changed from 5 to 57% at 2 to 18 minutes. At 18 to 22 minutes, the proportion of the mobile phase B was changed from 57 to 5%. Finally, at 22 to 27 minutes, the proportion of the mobile phase B was maintained at 5%. Chromatography was performed at a wavelength of 254 nm using a UV/Vis detector.

The next series has as its target T1, IsPETase^Mut (Piscinibacter sakaiensis, UniProt A0A0K8P6T7, D186H/R280A/S121E).
T1 construct: His tag (pET28a vector) (N); made in house; host or cells: E. coli BL21(DE3)
Nature of the series: Inhibitory effect of catalysts on IsPETase^Mut enzyme reaction. Particulars: 1 mM; enzyme 2.3 U/L; substrate BHET; 50 mM sodium phosphate buffer (pH 8); 40 °C, 15 minutes. The format is biochemical, Ideonella sakaiensis. On the procedure: (§1) To confirm whether the metal catalysts used in conventional PET glycolysis and betaine, which is an eco-friendly catalyst selected in this study, can have inhibitory effects on enzymatic hydrolysis, IsPETase^Mut and IsMHETase^Mut enzyme experiments were performed using 1 mM each of betaine, Ca^2+, Co^2+, Cu^2+, Fe^2+, Mg^2+, Mn^2+, Ni^2+, pb^2+, Zn^2+, and Li^+. The experiments were performed under conditions including an enzyme concentration of 2.3 U/L, 2.5 mg each of the substrates BHET and MHET, 50 mM sodium phosphate buffer (pH 8), and a volume of 500 μL. After performing the reaction at 40° C. for 15 minutes, all samples were diluted in methanol and centrifuged at 25,188 g for 10 minutes, followed by analyzing the supernatant through high performance liquid chromatography (HPLC). […] Therefore, the product of PET glycolysis using betaine may be used in enzymatic hydrolysis.

The target of another series is T2, IsMHETase^Mut (Piscinibacter sakaiensis, UniProt A0A0K8P8E7, W397A).
T2 construct: His tag (pET28a vector) (N); made in house; host or cells: E. coli BL21(DE3)
T2 sequence (A0A0K8P8E7 other isoform, or with tags, fused parts or gaps W397A): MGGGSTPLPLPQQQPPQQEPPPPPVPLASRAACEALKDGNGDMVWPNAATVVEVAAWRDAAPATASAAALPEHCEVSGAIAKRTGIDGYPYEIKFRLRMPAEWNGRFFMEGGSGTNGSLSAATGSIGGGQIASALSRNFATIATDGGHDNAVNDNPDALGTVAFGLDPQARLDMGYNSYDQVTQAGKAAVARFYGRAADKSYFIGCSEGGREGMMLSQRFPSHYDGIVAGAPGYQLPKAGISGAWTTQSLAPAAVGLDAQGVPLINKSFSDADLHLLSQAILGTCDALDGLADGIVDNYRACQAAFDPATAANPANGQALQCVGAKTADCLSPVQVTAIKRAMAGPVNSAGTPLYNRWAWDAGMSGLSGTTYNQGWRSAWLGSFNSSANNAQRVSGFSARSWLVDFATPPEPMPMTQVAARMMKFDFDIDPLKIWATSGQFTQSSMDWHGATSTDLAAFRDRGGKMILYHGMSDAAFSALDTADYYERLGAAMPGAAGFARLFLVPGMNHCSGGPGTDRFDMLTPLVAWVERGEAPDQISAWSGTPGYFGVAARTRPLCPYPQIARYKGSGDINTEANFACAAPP
Nature of the series: Inhibitory effect of catalysts on IsMHETase^Mut enzyme reaction. The format is biochemical, Ideonella sakaiensis. Particulars: 1 mM; enzyme 2.3 U/L; substrate MHET; 50 mM sodium phosphate buffer (pH 8); 40 °C, 15 minutes. On the procedure: as §1

The conditions of series [3]: PET film; pH 7.0; 30 °C; 18 h; Yoshida et al.; cited from earlier work.
The mark [4] stands for this setting: PET/EG 1:4, catalyst/PET 0.5 wt %, 60 min.
[5] abbreviates: PET/EG 1:3, catalyst/PET 0.5 wt %, 30 min.
The mark [6] stands for this setting: PET/EG 1:4, catalyst/PET 0.1 wt %, 30 min.
Setting [7] is: PET/EG 1:4, catalyst/PET 0.5 wt %, 30 min.
Setting [8] is: PET/EG 1:4, catalyst/PET 0.5 wt %, 90 min.
Where [9] appears, read: PET/EG 1:4, catalyst/PET 0.5 wt %, 120 min.
[10] abbreviates: PET/EG 1:4, catalyst/PET 1 wt %, 30 min.
[11] abbreviates: PET/EG 1:5, catalyst/PET 0.5 wt %, 30 min.
The mark [12] stands for this setting: PET/EG 1:6, catalyst/PET 0.5 wt %, 30 min.
The mark [13] stands for this setting: PET/EG 1:10, catalyst/PET 0.5 wt %, 30 min.
The mark [14] stands for this setting: PET/EG 1:20, catalyst/PET 0.5 wt %, 30 min.

T1 sequence (A0A0K8P6T7 other isoform, or with tags, fused parts or gaps S121E/D186H/R280A): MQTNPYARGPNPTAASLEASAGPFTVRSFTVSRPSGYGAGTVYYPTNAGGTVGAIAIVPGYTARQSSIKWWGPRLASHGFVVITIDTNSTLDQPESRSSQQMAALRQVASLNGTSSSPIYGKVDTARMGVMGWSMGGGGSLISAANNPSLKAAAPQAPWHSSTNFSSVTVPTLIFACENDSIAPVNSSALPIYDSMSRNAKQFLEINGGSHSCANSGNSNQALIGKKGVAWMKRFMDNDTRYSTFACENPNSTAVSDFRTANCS

In series [1], `O=C(O)c1ccc(C(=O)O)cc1` [TPA, terephthalic acid] registered a pH of 5.47.

Regarding `C1CN=C2NCCCN2C1` [TBD, 1,5,7-triazabicyclo[4.4.0]dec-5-ene, reference compound], in series [2] (setting [4]), the “collective yield of BHET and MHET” value is given as 55.1%; the “titer of BHET” value turned out to be 328.4 g/L; the “titer of MHET” value stood at 45.9 g/L.

For `C[N+](C)(C)CC(=O)O` [betaine], the “inhibitory effect on IsPETase^Mut enzyme reaction” value against IsPETase^Mut is reported as “no inhibitory effect”. The “collective yield of BHET and MHET” value in series [2] (setting [5]) stood at 34.6%; in series [2] (setting [6]), 26.6%; in series [2] (setting [7]), 52.3%; in series [2] (setting [4]), 58.7%; in series [2] (setting [8]), 55.1%; in series [2] (setting [9]), 53.8%. In addition, the “collective yield of BHET and MHET” value is given as 42.4% in series [2] (setting [10]); 52.7% in series [2] (setting [11]); 51.6% in series [2] (setting [12]); 49.8% in series [2] (setting [13]); 37.2% in series [2] (setting [14]). Moreover, the “titer of BHET” value in series [2] (setting [5]) is listed as 256.8 g/L; in series [2] (setting [6]), 185.3 g/L; in series [2] (setting [7]) it was 330.6 g/L; in series [2] (setting [4]), 368.6 g/L; in series [2] (setting [8]), 341.2 g/L; in series [2] (setting [9]) it was 313.8 g/L. Also, the “titer of BHET” value in series [2] (setting [10]) was 286.9 g/L; in series [2] (setting [11]), 307.6 g/L; in series [2] (setting [12]), 268.3 g/L; in series [2] (setting [13]) it was 189.8 g/L; in series [2] (setting [14]), 81.3 g/L. For the same molecule, the “titer of MHET” value amounted to 24.9 g/L in series [2] (setting [5]); 27.6 g/L in series [2] (setting [7]); 32.8 g/L in series [2] (setting [4]); 35.1 g/L in series [2] (setting [8]); 50.4 g/L in series [2] (setting [9]); 6.8 g/L in series [2] (setting [10]). Besides, the “titer of MHET” value is 21.6 g/L in series [2] (setting [11]), 19.1 g/L in series [2] (setting [12]), 6.7 g/L in series [2] (setting [13]) and 2.9 g/L in series [2] (setting [14]). Moreover, the “inhibitory effect on IsMHETase^Mut enzyme reaction” value at IsMHETase^Mut is “no inhibitory effect”.

B1: /sPETase^Wild: wild-type PETase of I. sakaiensis, SEQ ID NO: 3 (protein)
chain: HMQTNPYARGPNPTAASLEASAGPFTVRSFTVSRPSGYGAGTVYYPTNAGGTVGAIAIVPGYTARQSSIKWWGPRLASHGFVVITIDTNSTLDQPSSRSSQQMAALRQVASLNGTSSSPIYGKVDTARMGVMGWSMGGGGSLISAANNPSLKAAAPQAPWDSSTNFSSVTVPTLIFACENDSIAPVNSSALPIYDSMSRNAKQFLEINGGSHSCANSGNSNQALIGKKGVAWMKRFMDNDTRYSTFACENPNSTRVSDFRTANCSLE
modifications: IsMHETase_wt
On to B1, for which, in series [3], the “sum of TPA, MHET and BHET” value is “(0.3 mM”.
